Assay results published in patent US4578489A (priority 1982, dated 1986).
Read-outs that look alike come from different tables or passages of the source.

Experiments:
[1] = tested on: Proteus vulgaris; test: Minimum inhibitory concentration against bacteria, strain A; format: cell-based; details: 24 hours at 30° C.; tested at 100 and 300 mg/liter
Procedure, shortened: (§1)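 Read-out: visual turbidity after 24 hours at 30° C. in a shaking waterbath. Bacteria from overnight Caso peptone cultures, diluted 1/1000 twice (saline, then broth), were exposed to compound at 100 or 300 mg/liter.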

[2] = tested on: Alcaligenes denitrificans; test: Minimum inhibitory concentration against bacteria, strain E; format: cell-based; details: 24 hours at 30° C.; tested at 100 and 300 mg/liter
Procedure, shortened: as §1

[3] = tested on: Candida albicans; test: Minimum inhibitory concentration against fungi, agar incorporation test, strain P; format: cell-based; details: malt extract/agar
Procedure, shortened: (§2)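 Compounds were incorporated into malt extract agar at final concentrations of 2, 5, 10, 50 and 100 mg/liter. Fungal inoculum was added dropwise as traces, and the MIC was the lowest concentration (mg/liter) that inhibited growth.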

[4] = tested on: Alternaria alternata; test: Minimum inhibitory concentration against fungi, agar incorporation test, strain N; format: cell-based; details: malt extract/agar
Procedure, shortened: as §2

[5] = tested on: mixed culture of bacteria; format: cell-based; design: key: +: growth, no destruction; (+): growth less than that of control (>10 colonies), slight destruction; (-): slight growth (1-10 colonies); -: no growth, destruction
[6] = tested on: Artemia salina; test: Action against Artemia salina nauplii; format: in vivo; design: key: 0: no change; 1: slight change; 1-2: animals are attacked; 2: animals are strongly attacked; 2-3: animals are nearly all dead; 3: animals are all dead
Method: The eggs, which are available commercially, are caused to hatch by vigorous aeration. When 2-3 days old, the nauplii are exposed to the products at various concentrations (concentrations tested: 2.5; 1; 0.5 and 0.25 mg/liter) in synthetic seawater, and are observed over a prolonged period of time.

[7] = tested on: Enteromorpha intestinalis; test: Action against Enteromorpha intestinalis: destruction (minimum killing concentration); format: in vivo; details: 4 hours in seawater, then 6-8 weeks in fresh seawater
Method: (§3) The action against the green alga Enteromorpha, which is the most important in seawter fouling, is investigated in sterile-filtered seawater containing an Erd-Schreiber solution. This solution is composed of a nutrient extract, phosphate and nitrate. The incubation of Enteromorpha intestinalis is carried out in a light thermostat at 18° C. under an alternation of 14 hours of light and 10 hours of darkness.
The algae which have been cultured in this way are exposed to the products under investigation for a short time (4 hours) in seawater. The minimum killing concentration (MKC) is determined by taking the algae out of the seawater containing a specific quantity of algicide, after the treatment time in the latter, washing the algae and investigating growth or mortality after incubation in fresh seawater for a further period of 6-8 weeks.
The minimum killing concentration (MKC) indicates the amount of substance required to cause such damage to the algae within a specific time that they can no longer recover in fresh seawater and die out.

[8] = tested on: Aspergillus niger; test: Minimum inhibitory concentration against fungi, agar incorporation test, strain K; format: cell-based; details: malt extract/agar
Procedure, shortened: as §2

[9] = tested on: Enterobacter aerogenes; test: Minimum inhibitory concentration against bacteria, strain C; format: cell-based; details: 24 hours at 30° C.; tested at 100 and 300 mg/liter
Procedure, shortened: as §1

[10] = tested on: Aureobasidium pullulans; test: Minimum inhibitory concentration against fungi, agar incorporation test, strain R; format: cell-based; details: malt extract/agar
Procedure, shortened: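 Compounds incorporated in malt extract agar at final 2, 5, 10, 50 and 100 mg/liter. Agar inoculated dropwise with traces of fungus. Value is the concentration (mg/liter) needed to inhibit growth.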

[11] = tested on: Cladosporium cladosporioides; test: Minimum inhibitory concentration against fungi, agar incorporation test, strain O; format: cell-based; details: malt extract/agar
Procedure, shortened: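 Compounds incorporated into malt extract agar at final concentrations of 2, 5, 10, 50 and 100 mg/liter, with fungal traces added dropwise. Value is the concentration (mg/liter) required to inhibit fungal growth.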

[12] = tested on: Bacillus subtilis; test: Minimum inhibitory concentration against bacteria, strain F; format: cell-based; details: 24 hours at 30° C.; tested at 100 and 300 mg/liter
Procedure, shortened: as §1

[13] = tested on: Pseudomonas aeruginosa; test: Minimum inhibitory concentration against bacteria, strain B; format: cell-based; details: 24 hours at 30° C.; tested at 100 and 300 mg/liter
Procedure, shortened: as §1

[14] = tested on: Chaetomium globosum; test: Minimum inhibitory concentration against fungi, agar incorporation test, strain S; format: cell-based; details: malt extract/agar
Procedure, shortened: as §2

[15] = tested on: Aureobasidium pullulans; test: Growth on wood; design: key: 1: growth on the wood; 2: slight growth on the wood; 3: no growth on the wood; 4: no growth on the wood and an inhibitory zone; details: 28°, 4 weeks
Method: Small blocks of spruce wood, 7×10×10 mm in size, are dried in vacuo. The small blocks are then vacuum-impregnated by keeping them, in vacuo, in 100 ml of distilled water+biocide for 30 minutes and then subjecting them to a pressure treatment (2 atmospheres gauge by means of compressed air) for 18 hours in the water. The pieces of wood treated in this way are first subjected to leaching in running water and are then dried.
The dried pieces of wood are placed on potato/glucose agar and the wood, as well as the surrounding agar, is inoculated with 0.1 ml of a spore suspension of Aureobasidium pullulans. After incubation at 28° for 4 weeks, the growth is evaluated in accordance with the following rating: […]

[16] = tested on: Chlorella vulgaris; test: Action against algae: Chlorella vulgaris; format: cell-based; design: key: --: no growth on the agar, 3 ppm have destroyed the algae in 6 hours; details: 3 mg/liter; for Growth on the agar (algae-destroying action): 6 hours exposure, 14 days incubation; for Growth in the medium (growth inhibition): 14 days
Procedure, shortened: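 14-day cultures diluted 1/200 in nutrient medium received compound at 3 mg/liter final. After 6 h, samples were spotted on algae/agar for algicidal action; growth inhibition in medium and killing on agar assessed visually after 14 days under 14 h light/10 h dark.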

[17] = tested on: Serratia marcencens; test: Minimum inhibitory concentration against bacteria, strain D; format: cell-based; details: 24 hours at 30° C.; tested at 100 and 300 mg/liter
Procedure, shortened: as §1

[18] = tested on: Penicillium funiculosum; test: Minimum inhibitory concentration against fungi, agar incorporation test, strain M; format: cell-based; details: malt extract/agar
Procedure, shortened: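 Compounds incorporated into malt extract agar at final 2, 5, 10, 50 and 100 mg/liter, then inoculated dropwise with fungus. Value is the concentration (mg/liter) inhibiting growth.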

[19] = tested on: Enteromorpha intestinalis; test: Action against Enteromorpha intestinalis: inhibitory concentration (MIC); format: in vivo; details: seawater containing biocide for entire test; concentration tested 0.5 mg/liter
Method: as §3
For determining the inhibitory concentration (MIC), the algae are kept in seawater containing biocide for the entire duration of the test (concentration tested: 0.5 mg/liter).

[20] = tested on: Aspergillus phoenicis; test: Minimum inhibitory concentration against fungi, agar incorporation test, strain L; format: cell-based; details: malt extract/agar
Procedure, shortened: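 Agar incorporation test in malt extract agar with compound at final 2, 5, 10, 50 and 100 mg/liter, inoculated dropwise with fungus; value is concentration (mg/liter) inhibiting growth.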

[21] = tested on: Endomyces geotrichum; test: Minimum inhibitory concentration against fungi, agar incorporation test, strain Q; format: cell-based; details: malt extract/agar
Procedure, shortened: as §2

[22] = 5 mg/l, culture diluted 1/1000 in Tyrode
[23] = 5 mg/l, culture diluted 1/10000 in Tyrode
[24] = 10 mg/l, culture diluted 1/1000 in Tyrode
[25] = 10 mg/l, culture diluted 1/10000 in Tyrode
[26] = 30 mg/l, culture diluted 1/1000 in Tyrode
[27] = 30 mg/l, culture diluted 1/10000 in Tyrode
[28] = 60 mg/l, culture diluted 1/1000 in Tyrode
[29] = 60 mg/l, culture diluted 1/10000 in Tyrode
[30] = 100 mg/l, culture diluted 1/1000 in Tyrode
[31] = 100 mg/l, culture diluted 1/10000 in Tyrode

CCCCCCCCCCCC[n+]1ccccc1.CCC[CH2][Sn-]([Cl])([Cl])([CH2]CCC)[CH2]CCC [Example 6, Pyridine-Nlauryl / Tributyldichloro]
MIC against bacteria, strain A [1]: 100 µg/mL
MIC against bacteria, strain E [2]: 100 µg/mL
MIC against fungi, strain P [3]: 5 µg/mL
MIC against fungi, strain N [4]: 2 µg/mL
Growth (destruction of a mixed culture of bacteria) [5, 22]: +
Growth (destruction of a mixed culture of bacteria) [5, 23]: +
Growth (destruction of a mixed culture of bacteria) [5, 24]: +
Growth (destruction of a mixed culture of bacteria) [5, 25]: +
Growth (destruction of a mixed culture of bacteria) [5, 26]: +
Growth (destruction of a mixed culture of bacteria) [5, 27]: +
Growth (destruction of a mixed culture of bacteria) [5, 28]: +
Growth (destruction of a mixed culture of bacteria) [5, 29]: +
Growth (destruction of a mixed culture of bacteria) [5, 30]: +
Growth (destruction of a mixed culture of bacteria) [5, 31]: +
Action against Artemia salina ([6]; 0,5 mg/l, 6 hours): 1-2
Action against Artemia salina ([6]; 0,5 mg/l, 24 hours): 2-3
Action against Artemia salina ([6]; 0,5 mg/l, 48 hours): 3
Action against Artemia salina ([6]; 0,25 mg/l, 6 hours): 1
Action against Artemia salina ([6]; 0,25 mg/l, 24 hours): 2
Action against Artemia salina ([6]; 0,25 mg/l, 48 hours): 2-3
Action against Artemia salina ([6]; 1 mg/l, 6 hours): 2
Action against Artemia salina ([6]; 1 mg/l, 24 hours): 3
Action against Artemia salina ([6]; 1 mg/l, 48 hours): 3
Action against Artemia salina ([6]; 2,5 mg/l, 6 hours): 2-3
Action against Artemia salina ([6]; 2,5 mg/l, 24 hours): 3
Action against Artemia salina ([6]; 2,5 mg/l, 48 hours): 3
Destruction, 5 mg/liter [7]: yes
MIC against fungi, strain K [8]: 2 µg/mL
MIC against bacteria, strain C [9]: 100 µg/mL
MIC against fungi, strain R [10]: 2 µg/mL
MIC against fungi, strain O [11]: 2 µg/mL
MIC against bacteria, strain F [12]: 100 µg/mL
MIC against bacteria, strain B [13]: 100 µg/mL
MIC against fungi, strain S [14]: 2 µg/mL
growth on wood, leached for 5 days ([15]; 0.01 % in H2 O): 4
growth on wood, not leached ([15]; 0.01 % in H2 O): 4
growth on wood, leached for 5 days ([15]; 0.05 % in H2 O): 4
growth on wood, not leached ([15]; 0.05 % in H2 O): 4
Growth on the agar (algae-destroying action) [16]: --
Growth in the medium (growth inhibition) [16]: --
MIC against bacteria, strain D [17]: 100 µg/mL
MIC against fungi, strain M [18]: 5 µg/mL
MIC [19]: 0.5 µg/mL
MIC against fungi, strain L [20]: 2 µg/mL
MIC against fungi, strain Q [21]: 5 µg/mL

CCCCCCCCCCCCCC[N+](C)(C)Cc1ccccc1.CCC[CH2][Sn-]([Cl])([Cl])([CH2]CCC)[CH2]CCC [Example 2, dimethyl-benzyl-tetradecylammonium tributyldichlorostannate-(IV)]
MIC against bacteria, strain A [1]: 100 µg/mL
MIC against bacteria, strain E [2]: 100 µg/mL
MIC against fungi, strain P [3]: 5 µg/mL
MIC against fungi, strain N [4]: 2 µg/mL
Growth (destruction of a mixed culture of bacteria) [5, 22]: +
Growth (destruction of a mixed culture of bacteria) [5, 23]: +
Growth (destruction of a mixed culture of bacteria) [5, 24]: +
Growth (destruction of a mixed culture of bacteria) [5, 25]: +
Growth (destruction of a mixed culture of bacteria) [5, 26]: (+) (growth less than that of control (>10 colonies), slight destruction)
Growth (destruction of a mixed culture of bacteria) [5, 27]: -
Growth (destruction of a mixed culture of bacteria) [5, 28]: (+) (growth less than that of control (>10 colonies), slight destruction)
Growth (destruction of a mixed culture of bacteria) [5, 29]: -
Growth (destruction of a mixed culture of bacteria) [5, 30]: (-) (slight growth (1-10 colonies))
Growth (destruction of a mixed culture of bacteria) [5, 31]: -
Action against Artemia salina ([6]; 0,5 mg/l, 6 hours): 1-2
Action against Artemia salina ([6]; 0,5 mg/l, 24 hours): 2-3
Action against Artemia salina ([6]; 0,5 mg/l, 48 hours): 3
Action against Artemia salina ([6]; 0,25 mg/l, 6 hours): 0-1
Action against Artemia salina ([6]; 0,25 mg/l, 24 hours): 2
Action against Artemia salina ([6]; 0,25 mg/l, 48 hours): 2-3
Action against Artemia salina ([6]; 1 mg/l, 6 hours): 2
Action against Artemia salina ([6]; 1 mg/l, 24 hours): 3
Action against Artemia salina ([6]; 1 mg/l, 48 hours): 3
Action against Artemia salina ([6]; 2,5 mg/l, 6 hours): 2-3
Action against Artemia salina ([6]; 2,5 mg/l, 24 hours): 3
Action against Artemia salina ([6]; 2,5 mg/l, 48 hours): 3
Destruction, 5 mg/liter [7]: yes
MIC against fungi, strain K [8]: 2 µg/mL
MIC against bacteria, strain C [9]: 100 µg/mL
MIC against fungi, strain R [10]: 2 µg/mL
MIC against fungi, strain O [11]: 2 µg/mL
MIC against bacteria, strain F [12]: 100 µg/mL
MIC against bacteria, strain B [13]: 100 µg/mL
MIC against fungi, strain S [14]: 2 µg/mL
growth on wood, leached for 5 days ([15]; 0.01 % in H2 O): 4
growth on wood, not leached ([15]; 0.01 % in H2 O): 4
growth on wood, leached for 5 days ([15]; 0.05 % in H2 O): 4
growth on wood, not leached ([15]; 0.05 % in H2 O): 4
Growth on the agar (algae-destroying action) [16]: --
Growth in the medium (growth inhibition) [16]: --
MIC against bacteria, strain D [17]: 100 µg/mL
MIC against fungi, strain M [18]: 2 µg/mL
MIC [19]: 0.5 µg/mL
MIC against fungi, strain L [20]: 2 µg/mL
MIC against fungi, strain Q [21]: 5 µg/mL
